In patent US9593157B2, “Chimeric polypeptides comprising G protein-coupled receptors and VHH antibodies” (VIB VZW, priority 2013, dated 2017):

Legend:
Type in all cases: binding
hMor1-34GS-Nb33 = target: T1, hMor1-34GS-Nb33 (Homo sapiens, UniProt P35372); test: biochemical
T1 construct: HA signal peptide (N); made in house; host or cells: Sf9 insect cells (baculovirus), membranes

hMor1-34GS-Nb10 = target: T2, hMor1-34GS-Nb10 (Homo sapiens, UniProt P35372); test: biochemical
T2 construct: HA signal peptide (N); made in house; host or cells: Sf9 insect cells (baculovirus), membranes

M2Δi3R-Nb9-8 = target: T3, M2Δi3R-Nb9-8 (Homo sapiens, UniProt P08172, A373T/DEL233-372/K374R/N2D/N3D/N6D/N9D); test: Radioligand competition on M2Δi3R-Nb9-8 fusion (data not shown)
T3 construct: linker […]; His6 (C); made in house
T3 sequence (P08172 with tags, fused parts or gaps N2D/N3D/N6D/N9D/DEL233-372/A373T/K374R): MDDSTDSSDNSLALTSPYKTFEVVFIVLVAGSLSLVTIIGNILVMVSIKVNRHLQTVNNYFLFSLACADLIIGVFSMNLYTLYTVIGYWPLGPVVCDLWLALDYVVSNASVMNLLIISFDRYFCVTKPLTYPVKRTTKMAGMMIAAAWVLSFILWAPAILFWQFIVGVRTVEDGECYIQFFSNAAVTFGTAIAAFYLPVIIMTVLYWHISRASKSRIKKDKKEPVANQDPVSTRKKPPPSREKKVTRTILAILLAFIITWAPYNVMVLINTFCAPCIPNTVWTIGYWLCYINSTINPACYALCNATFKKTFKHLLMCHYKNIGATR

M2Δi3R-Nb9-1 = target: T4, M2Δi3R-Nb9-1 (Homo sapiens, UniProt P08172, A373T/DEL233-372/K374R/N2D/N3D/N6D/N9D); test: Comparative radioligand competition assay ([3H]-N methyl scopolamine) on Sf9 membranes expressing M2Δi3R-Nb9-1
T4 construct: linker […]; made in house; host or cells: Sf9 insect cells (baculovirus), membranes
T4 sequence (P08172 with tags, fused parts or gaps N2D/N3D/N6D/N9D/DEL233-372/A373T/K374R): T3 sequence (P08172 with tags, fused parts or gaps N2D/N3D/N6D/N9D/DEL233-372/A373T/K374R)
Procedure: (§1) Radioligand competition binding experiments were performed on Sf9 insect cell membranes expressing either M2Δi3R (no Single-domain antibody fused) or M2Δi3R-Nb9-1. […] After filtration, membranes retained on the filter plates were washed with ice-cold wash buffer (20 mM Tris-HCl pH7.4), and filters were dried for 1 hour at 50° C.

M2Δi3R = target: T5, M2Δi3R (Homo sapiens, UniProt P08172, A373T/DEL233-372/K374R/N2D/N3D/N6D/N9D); test: Comparative radioligand competition assay ([3H]-N methyl scopolamine) on Sf9 membranes expressing non-fused M2Δi3R; conditions: [3H]-NMS 0.5 nM
T5 construct: made in house; host or cells: Sf9 insect cells (baculovirus), membranes
T5 sequence (P08172 with tags, fused parts or gaps N2D/N3D/N6D/N9D/DEL233-372/A373T/K374R): T3 sequence (P08172 with tags, fused parts or gaps N2D/N3D/N6D/N9D/DEL233-372/A373T/K374R)
Procedure: as §1

β2AR = β2AR (Homo sapiens, UniProt P07550); test: Affinity of Single-domain antibody for β2AR
[1] = target: T6, non-fused β2AR365N in presence of exogenously added Nb80 (Homo sapiens, UniProt P07550, E27Q/G16R/N187E); test: Radioligand competition assay on non-fused β2AR365N in complex with exogenously added Nb80; conditions: epinephrine bound active state; 5 μM Nb80 in 250 μl
T6 construct: made in house; host or cells: Sf9 insect cells (baculovirus), membranes; purified Nb80 added
Procedure: To compare the efficiency of fused versus non-fused Nb80 to stabilize the active state of β2AR, the pharmacological properties of the β2AR365N-Nb80 fusion was compared to the non-fused β2AR365N in complex with exogenously added Nb80. […] The β2AR365N-Nb69 fusion and β2AR365N in complex with exogenously added Nb69 were assayed in parallel as controls.
Radioligand competition binding experiments were performed on Sf9 insect cell membranes (5 μg total protein) expressing either β2AR365N (no Single-domain antibody fused), β2AR365N-Nb80 or β2AR365N-Nb69. […] Data represent the mean±SEM of each data point performed in triplicate.

Mor1 = Mor1 (Homo sapiens, UniProt P35372); test: Affinity of Single-domain antibody for Mor1

Molecule: Cc1cc(O)cc(C)c1C[C@H](N)C(=O)N[C@H](CCCNC(=N)N)C(=O)N[C@H]1Cc2ccccc2CN(CCC(N)=O)C1=O [KGOP01]
- IC50 (hMor1-34GS-Nb33): 3.8 nM
- IC50Nb33/IC50Nb10 (fold preference) (hMor1-34GS-Nb33): 20
- IC50 (hMor1-34GS-Nb10): 76.7 nM

Molecule: C[N+](C)(C)CCOC(N)=O [carbachol]
- affinity of M2Δi3R-Nb9-8 fusion compared to non-fused M2Δi3R (M2Δi3R-Nb9-8): higher affinity

Molecule: C[N+](C)(C)CC#CCN1CCCC1=O [oxotremorine M]
- IC50 ratio IC50m2Δi3R/IC50highM2Δi3R-Nb9-1 (M2Δi3R-Nb9-1): 316
- IC50 (M2Δi3R-Nb9-1; [3H]-NMS 0.5 nM, Sf9 membranes, IC50high): 310 nM
- IC50 (M2Δi3R): 98400 nM

B1: Nb69: mock Single-domain antibody specific for Muscarinic3 receptor, SEQ ID NO:15 (protein)
VHH: QVQLQESGGGLVQAGGSLRLSCTASGLTLSNYAMGWFRQAPGKEREFVAADTWNGNTYHQDSVKGRFTISRDNAKNTVYLQMNYLKPEDTAVYYCAARGSRRSAYYSSSDYTYRGQGTQVTVSS
modifications: Nb69
- affinity for β2AR (β2AR): no detectable affinity

B2: Nb80: β2AR specific Single-domain antibody stabilizing the active state, SEQ ID NO:13 (protein)
VHH: QVQLQESGGGLVQAGGSLRLSCAASGSIFSINTMGWYRQAPGKQRELVAAIHSGGSTNYANSVKGRFTISRDNAANTVYLQMNSLKPEDTAVYYCNVKDYGAVLYEYDYWGQGTQVTVSS
modifications: Nb80
- molar excess of exogenously added Nb80 over β2AR required to constrain the receptor with same efficiency as the fusion [1]: 12500 fold

B3: Nb10: Single-domain antibody specific for a chemokine GPCR, SEQ ID NO:20 (protein)
VHH: QVQLQESGGGLVQPGGSLRLSCAASGSFRSIVSMAWYRQAPGKQRELVASSNSGGSTNYADSVKGRFTISRDNAKNTVYLQMNSLKPEDTAVYWCNVQNRLPGFDAFSGRSIAETYWGQGTQVTVSS
modifications: Nb10
- affinity for Mor1 (Mor1): no detectable affinity
